According to patent US5034548A, “Steroid derivatives useful as hypocholesterolemics” (E. I. Du Pont de Nemours and Company, priority 1990, dated 1991):

Tests used:
[1] = Lowering blood (plasma) cholesterol levels in hamsters; type: in vivo, Male Golden Syrian hamsters; conditions: 0.2% (w/w) in diet, 7 days, N = 16, means±SEM
Procedure: Male Golden Syrian hamsters (50-60 grams) were obtained from Charles River, Inc. (Wilmington, Mass.). Animals were housed in individual suspension cages and were maintained on a light cycle consisting of 12 hours of light followed by 12 hours of dark. Animals were allowed free access to water and feed (Agway ground chow, RMH 3200, Agway, Syracuse, N.Y.) containing 1% (w/w) corn oil) for a minimum of 4 weeks. Following this stabilization period a sample of blood was collected by orbital sinus bleeding under light ether anesthesia into heparinized capillary tubes. Plasma was separated by centrifugation (600×g for 10 minutes) and plasma cholesterols were determined by an autoanalyzer (Centrifichem 600, Baker Instruments, Allentown, Pa.). Based upon measured plasma cholesterol values, the animals were randomized into two groups such that the mean plasma cholesterol values were identical for both groups.
Animals in the two groups were then placed on one of two diets: (1) Diet A, consisting of ground chow plus 1% (w/w) corn oil, as described above; or (2) Diet B, consisting of Diet A plus 0.2% (w/w) of a test compound. Animals on Diet B, the treated animals, were allowed free access to feed and water, while animals on Diet A were pair-matched with Diet B animals and served as pair-fed controls. […] Total plasma cholesterol levels were determined as described above. […]

[2] = target: T1, Lanosta-8,24-dien-3β-ol 14α-methyl demethylase (Rattus norvegicus, UniProt Q64654); assay: Lanosta-8,24-dien-3β-ol 14α-Methyl Demethylase Inhibition Assay; type: biochemical; conditions: rat hepatic microsomal preparations, 100 μM lanost-8-en-3β-ol substrate, pH not given; test compounds 0 to 100 μM
T1 construct: determined in rat depatic microsomal preparations; from tissue; host or cells: rat hepatic microsomes
T1 sequence (Q64654 1-503): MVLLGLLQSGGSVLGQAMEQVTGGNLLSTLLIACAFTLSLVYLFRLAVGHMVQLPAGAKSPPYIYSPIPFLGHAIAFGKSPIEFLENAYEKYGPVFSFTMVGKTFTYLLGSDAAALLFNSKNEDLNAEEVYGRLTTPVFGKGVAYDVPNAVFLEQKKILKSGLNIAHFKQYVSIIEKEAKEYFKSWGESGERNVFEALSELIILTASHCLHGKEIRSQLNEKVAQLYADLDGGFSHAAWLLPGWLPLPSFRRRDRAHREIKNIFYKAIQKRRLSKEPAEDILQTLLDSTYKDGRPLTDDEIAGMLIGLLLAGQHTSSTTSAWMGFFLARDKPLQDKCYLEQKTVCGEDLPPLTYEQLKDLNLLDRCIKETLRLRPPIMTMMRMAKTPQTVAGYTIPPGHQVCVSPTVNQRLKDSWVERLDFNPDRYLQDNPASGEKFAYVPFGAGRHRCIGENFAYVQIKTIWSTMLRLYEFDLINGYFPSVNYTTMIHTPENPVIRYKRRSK
Procedure: Lanosta-8,24-dien-3β-ol 14α-methyl demethylase activity was determined in rat depatic microsomal preparations as described in Trzaskos et al., J. Biol. Chem., 261, 16937-16942 (1986). Specifically, test compounds were added to assay mixtures as detergent suspensions with substrate employing 5 mg Triton WR-1339, 100 μM lanost-8-en-3β-ol substrate, and test compounds ranging from 0 to 100 μM. The inhibitor/substrate/detergent suspension was incubated with 2 mg microsomal protein for 5 min at 37° followed by a 10 min incubation initiated by the addition of cofactors required for the reaction. […] Inhibition values are expressed as the amount of compound required to inhibit lanosta-8,24-dien-3β-ol 14α-methyldemethylase activity by 50% relative to that of the controls.

[3] = test system: cholesterol synthesis in CHO cells; assay: De novo cholesterol synthesis: incorporation of radiolabeled acetate into cholesterol in CHO cells; type: cell-based, Chinese Hamster; conditions: for Cholesterol Synthesis (DPMs): 17 hr + 2 hr with [14C]-acetic acid, Control 38855
Procedure: The ability of the compounds of Formula I to decrease de novo cholesterol synthesis was tested by measuring the incorporation of radiolabeled acetate into cholesterol synthesized in CHO cells. To conduct this experiment, CHO cells were plated at 0.3×10^6 cells per 15×60 mm tissue culture dish in 5 mL of McCoy's modified medium (Gibco Laboratories) containing 1% Cab-O-Sil delipidated FBS and incubated for 48 hours at 37° in a 5% CO2, 95% air environment. Test compounds in a 2.5% suspension of BSA (fatty acid free) in ethanol were then added to the cultures such that the final ethanol and BSA concentrations were 0.5% and […], respectively. Control cultures received ethanol and BSA alone. The cultures containing test compounds were then incubated at 37° in a 5% Co, 95% air environment for 17 hr before the addition of [1,2-^14 C]-acetic acid (57 μCi/mmol); obtained from New England Nuclear, Boston, Mass.) at a concentration of 10 μCi/mL for 2 additional hr.
The cells were harvested by washing the cells twice with 5 mL of cold PBS and scraping the cells into 1 mL PBS. The cell-containing solution was then transferred to 15 mL extraction tubes and treated with 1 mL of 90% methanol (containing 15% KOH, 100 μg/mL butylated hydroxytoluene). All samples were saponified for 1 hr at 80° and the non-saponifiable lipids then extracted with petroleum ether. The petroleum ether fractions were dried under nitrogen, resuspended in ethanol, counted and analyzed by reverse phase HPLC at 45° using an Ultrashpere Octyl column (from Altex Scientific Inc., Berkeley, Calif.) with a mobile phase of acetonitrile:methanol:water (44:44:12). The amount of cholesterol synthesis is measured by the amount of radiolabeled acetate incorporated into the cholesterol peak. The percent of cholesterol synthesis in the treated culture is calculated based upon the control culture.

[4] = test system: 3-Hydroxy-3-Methylglutaryl Coenzyme A Reductase (HMGR); assay: HMGR Suppression Assay in digitonin-permeabilized CHO cells; type: cell-based, Chinese Hamster; conditions: 6 hr incubation at 37°, amount to suppress HMGR activity by 50% relative to controls
Procedure: The ability of the compounds of Formula I to suppress the activity of HMGR, the rate limiting enzyme of cholesterol biosynthesis, was tested as follows. Chinese Hamster Ovary (CHO) cells were divided twice weekly and were maintained in McCoy's 5A medium supplemented with 1% Cab-O-Sil delipidated Fetal Bovine Serum (FBS) (obtained from Gibco Laboratories, Chagrin Falls, Ohio). Cells were harvested during the logarithmic phase of growth and cell cultures were prepared by adding 0.5×10^6 cells to wash well in a 24 well cluster dish (obtained from Costar, Data Packaging Corp., Cambridge, Mass.) employing 1 mL of the above medium per each well. […] Control cells were treated in an identical fashion to those which received test compound, except they were incubated with the BSA and ethanol suspension only.
Specifically, the medium in each well was aspirated and the cells rinsed with a 50 mM solution of phosphate buffered saline (PBS). One mL of 30 μg/mL of digitonin in CSK buffer (prepared using 10 mM Pipes [piperazine-N,N'-bis(2-ethansulfonic)acid'], 100 mM KCl, 2.5 mM MgCl2, 300 mM sucrose, 1 mM EGTA, pH 6.8) was added to each well and incubated for 10 min at 22° to permeabilize the cells. The buffer was carefully aspirated and the wells were rinsed twice each time with 1 mL of PBS. HMGR activity was measured directly by adding 75 μL of PIB buffer (50 mM potassium phosphate, 1 mM Na2 EDTA, 10 mM dithiothreitol, pH 7.4) to each well and incubating the cells for 30 minutes at 37° as described above. […] HMG-Coenzyme A (15 DPM/pmol), pH 7.4. The assay mixture was incubated for 30 min at 37° and terminated by the addition of 70 μL of [^3 H]-mevalonic acid (35,000 DPM/assay), 0.15 mg/mL in 3 N HCl. The reaction was left to lactonize for an additional 30 min at 37° or overnight at room temperature.
Reaction products were separated by thin layer chromatography on silica gel G (obtained from Analtech, Newark, Del.) developed in an unsaturated environment with acetone:benzene (3:2, v:v). The band corresponding to mevalonolactone was identified by exposure to iodine vapor and was scraped into counting vials. The extent of conversion of starting substrate, HMG-CoA, to mevalonic acid was determined by liquid scintillation counting in Biofluor (obtained from New England Nuclear, Boston, Mass). Corrections for recovery and blank values were made for each sample. Protein determinations were made by the Bio-rad (Bio-Rad, Richmond, Cal.) dye binding assay according to the manufacturer's instruction using bovine serum albumin as standard. Cellular protein was solubilized from culture dishes by the addition of 20 μL of 16 N KOH and assayed directly for protein amount. Suppression values are expressed as the amount of compound required to suppress HMGR activity by 50% relative to that of the controls.

SMILES | Plasma Cholesterol, Treated ([1]; pair-fed control 136.0 ± 4.8) | IC50 [2] | Cholesterol Synthesis (DPMs) ([3]; 0.5 μM) | activity at 0.5 µM ([3]; Cricetulus griseus, 19 h, 0.5 μM, percent of control culture (100)) | IC50 [4] | Plasma Cholesterol, Treated ([1]; pair-fed control 136.0 ± 3.5) | Cholesterol Synthesis (DPMs) ([3]; 1 μM) | activity at 1 µM ([3]; Cricetulus griseus, 19 h, 1 μM, percent of control culture (100))
CC(C)CCC[C@@H](C)[C@H]1CC(=NO)[C@@]2(C)C3=CC[C@H]4C(C)(C)[C@@H](O)CC[C@]4(C)[C@H]3CC[C@]12C [Compound 31b, 3β-hydroxy-lanost-7-en-15-oxime] | 69.6 ± 2.6 mg/dL | 55000 nM | 24064 DPMs | 62% | 200 nM | – | – | –
CC(C)CCC[C@@H](C)[C@H]1C[C@H](O)[C@@]2(O)C3=C(CC[C@]12C)[C@@]1(C)CC[C@H](O)C(C)(C)[C@@H]1CC3 [Compound 34a, 4,4-dimethyl-5α-cholest-8-en-3β,14α,15α-triol] | – | 3000 nM | – | – | 500 nM | 119.3 ± 2.3 mg/dL | 16521 DPMs | 43%
